The values below come from PubChem BioAssay AID1418 (Emory University Molecular Libraries Screening Center, 2008).

Active and inactive are the calls of the source. The rule behind the calls is not given here.

The target of this assay is Induced myeloid leukemia cell differentiation protein Mcl-1 (Homo sapiens) (UniProt Q07820). In words: blockers of Bid binding to Mcl-1 – biochemical, TR-FRET, dose response (AID 1418). Conditions: Mcl-1/Bid peptide binding, TR-FRET (europium/Dy647), 2 hr. Background: Time-resolved FRET reads energy transfer from a long-lived donor to a nearby acceptor.
Sequence of Induced myeloid leukemia cell differentiation protein Mcl-1 (Homo sapiens) (Q07820 whole entry, looked up): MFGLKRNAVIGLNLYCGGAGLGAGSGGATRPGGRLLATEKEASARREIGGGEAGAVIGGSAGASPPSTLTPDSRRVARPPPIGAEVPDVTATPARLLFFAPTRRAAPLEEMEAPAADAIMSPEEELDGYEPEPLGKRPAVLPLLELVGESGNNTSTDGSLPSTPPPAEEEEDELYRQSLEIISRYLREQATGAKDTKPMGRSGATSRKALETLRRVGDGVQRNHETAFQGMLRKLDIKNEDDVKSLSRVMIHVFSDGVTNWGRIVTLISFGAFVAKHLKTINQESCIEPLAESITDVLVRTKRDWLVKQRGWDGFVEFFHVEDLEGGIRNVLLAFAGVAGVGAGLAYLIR
Consider `C#CCOCCOCCOCCNc1nc(N2CCN(C(=O)C(Cc3ccc(O)cc3)n3cc(C(N)CC(C)C)nn3)CC2)nc(N2CCN(C(=O)C(Cc3cc4ccccc4[nH]3)n3cc(C(N)Cc4ccc(O)cc4)nn3)CC2)n1` (stereo unspecified), for which the IC50 is > 54 µM (inactive). Consider `COc1ccc(N=Nc2ccc(O)c3ncccc23)cc1`, for which the IC50 was 15.1 µM.

Turning to `COc1ccc(NC(=O)c2cc(C3CC3)on2)c(OC)c1`, the IC50 is > 54 µM (inactive). The figure for `O=c1c(CN2CCN(Cc3ccccc3)CC2)coc2ccc(Cl)cc12` is > 54 µM (inactive); for `O=[N+]([O-])c1ccc(-c2cn(-c3ccc(Cl)cc3)c(=S)[nH]2)cc1` it is > 54 µM (inactive); for `Nc1c(C(=O)NCCc2ccccc2)c2nc3ccccc3nc2n1CCN1CCOCC1` it is > 54 µM (inactive). On to `NC(=S)n1[nH]c(-c2ccc([N+](=O)[O-])cc2)c(N=Nc2cccc([N+](=O)[O-])c2)c1=O`, for which the IC50 was 2.37 µM. On to `CC(=O)Cc1cc(O)c2ccccc2c1OC(=O)c1ccc(Br)cc1`, for which the IC50 is > 54 µM (inactive). Consider `Clc1ccc(SCCn2ccnc2)cc1`, for which the IC50 result is “inactive”. The figure for `CC1CCC(C(C)C)C(OC(=O)C[n+]2cc(-c3ccc(Cl)cc3)n3c2CCC3)C1` (stereo unspecified) is > 54 µM (inactive).

As to `Cc1nc(NC(=O)c2ccco2)sc1-c1csc(Nc2ccc(Cl)cc2Cl)n1`, the IC50 was 0.77 µM. As for `Cc1ccc(-c2nc(CS(=O)CC(=O)N3CCC4(CC3)OCCO4)c(C)o2)cc1` (stereo unspecified), the IC50 was > 54 µM (inactive).

On to `Cc1ccc(NC(=O)C(=O)NCc2ccc(/C=C(/C#N)C(=O)NCc3cccnc3)o2)cc1C`, for which the IC50 was > 54 µM (inactive).

Take `COc1ccc(-c2csc(NC(=S)NC(=O)/C=C/c3ccco3)n2)cc1OC`: the IC50 is > 54 µM (inactive). The same measure for `CCOC(=O)c1c(C)oc2c1c(C(c1cccnc1)N1CCOCC1)c(O)c1ccccc12` (stereo unspecified): 0.85 µM; for `O=C(N=Nc1c(O)[nH]c2ccc(Br)cc12)c1cc(-c2cccs2)nc2ccccc12`: 0.54 µM; for `COC(=O)CN1C(C)=Nc2ccc(Br)cc2C1c1ccccc1` (stereo unspecified): > 54 µM (inactive). Take `O=C(O)c1cnn2c(C(F)(F)F)cc(-c3ccco3)nc12`: the IC50 was > 54 µM (inactive).

For the molecule `N=C1/C(=C\c2ccc(-c3cccc(C(=O)O)c3)o2)C(=O)N=C2SC=C(c3ccccc3)N12`, the IC50 was 4.64 µM. The figure for `CCCCCCCCCCCCCCCC[n+]1cccc2ccccc21` is 6.64 µM. On to `Cc1ccc(C2C3=C(Nc4[nH]n(-c5ccccc5)c(=O)c42)c2ccccc2C3=O)cc1` (stereo unspecified), for which the 50% inhibitory concentration (IC50) is 0.74 µM. For the molecule `CC(Sc1nnc2c(n1)C1CCC2(C)C1(C)C)C(=O)Nc1ccccc1` (stereo unspecified), the IC50 was > 54 µM (inactive).

Regarding `O=C(O)c1ccc(N2C(=O)/C(=C/c3ccc(-c4ccc([N+](=O)[O-])cc4)o3)C=C2c2ccccc2)cc1`, the IC50 was 1.42 µM. Consider `CC(C)n1c(SCC(=O)Nc2ccc3c(c2)OCO3)nc2c1c(=O)n(C)c(=O)n2C`, for which the IC50 was > 54 µM (inactive). Regarding `COc1ccccc1OCCOc1ccc(/C=C2/C(=N)N3OC(C)=CC3=NC2=O)cc1OC`, the IC50 was 0.56 µM. The figure for `COc1cc(-c2ccc(Nc3ccccc3C(=O)O)c(OC)c2)ccc1Nc1ccccc1C(=O)O` is 0.85 µM; for `CCN1C(=O)c2cccc3c(S(=O)(=O)Nc4ccccc4OC)ccc1c23` it is > 54 µM (inactive); for `COc1ccc(CN2C(=O)/C(=C/c3ccc(-c4ccc(Cl)c(C(=O)O)c4)o3)SC2=S)cc1` it is 1.65 µM. In the case of `CC1(c2ccccc2)CC(C)(C)N2C(=O)/C(=C3\SC(=S)NC3=O)c3cccc1c32` (stereo unspecified), the IC50 was 2.16 µM.

As to `O=C(N/N=C/C=C/c1ccc([N+](=O)[O-])cc1)c1cccs1`, the IC50 entry is “inactive”.

For `Cc1ccc2oc(C(F)(F)C(F)F)cc(=O)c2c1`, the IC50 entry was “inactive”. As to `O=C(N/N=C/c1ccc([N+](=O)[O-])o1)c1cc2c(ccc3ccccc32)o1`, the IC50 is 1.71 µM.

Consider `CC(C)(C)c1c(Cl)c(O)c(-c2ccccc2)c(=O)n1-c1ccccc1`, for which the IC50 was 0.68 µM. In the case of `COc1ccccc1C1C2=C(N=c3s/c(=C/c4cccc(OCC(=O)O)c4)c(=O)n31)c1ccccc1CC2` (stereo unspecified), the IC50 is 11.2 µM. Turning to `O=C(c1ccccc1)N1CCN(C2CCCCCC2)CC1`, the IC50 was > 54 µM (inactive).

With `O=C(O)Cn1cnc2c(=S)nc[nH]c21`, the IC50 is > 54 µM (inactive). With `COC(=O)c1sccc1NC(=O)c1cc(C)on1`, the IC50 is > 54 µM (inactive). The figure for `CCN1C(=O)c2cccc3c(NC(=O)C4CCCCC4)ccc1c23` is > 54 µM (inactive); for `COc1ccc(OC)c(NC(=S)N(CCc2c(C)[nH]c3ccc(C)cc23)Cc2cccs2)c1` it is > 54 µM (inactive); for `O=c1c2cc(Cl)ccc2nc(-c2ccccc2Cl)n1O` it is > 54 µM (inactive). `COCC(O)CSc1nc(C)[nH]c1[N+](=O)[O-]` (stereo unspecified): the IC50 is > 54 µM (inactive). For `Cn1c(SCC(=O)N=Nc2c(O)[nH]c3ccccc23)nc2ccccc21`, the IC50 was > 54 µM (inactive).

With `CCC(C)[C@H](NC(=O)Nc1ccccc1F)C(=O)O` (stereo partly specified), the IC50 is > 54 µM (inactive). In the case of `CNC(=O)C(=O)NCCN1CCN(C(=O)c2ccc([N+](=O)[O-])cc2)CC1`, the IC50 is > 54 µM (inactive). On to `O=C(Cc1c(Cl)cccc1Cl)OCC(=O)N1CCc2ccccc2C1`, for which the IC50 is > 54 µM (inactive).

Regarding `O=C(Nc1sc2c(c1C(=O)O)CCC2)c1ccccc1`, the IC50 was > 54 µM (inactive). For `Cc1ccc(S(=O)(=O)N(C)CC(O)Cn2c3ccccc3c3ccccc32)cc1` (stereo unspecified), the IC50 was > 54 µM (inactive). The figure for `Cc1ccc(CSc2nnc(SCC(=O)N/N=C/c3c[nH]c4ccccc34)s2)cc1` is 0.53 µM. For the molecule `CC1CC(C)CN(CCOCCSc2ccccc2)C1` (stereo unspecified), the IC50 is > 54 µM (inactive). Consider `O=C(NCc1cccnc1)c1cc2nc(-c3ccc4c(c3)OCO4)cc(C(F)(F)F)n2n1`, for which the IC50 is > 54 µM (inactive).

For `C=CCNCCCOc1ccc(Cl)cc1Br`, the IC50 is > 54 µM (inactive). `C#CCOCCOCCOCCNc1nc(N2CCN(C(=O)[C@H](Cc3ccc(O)cc3)n3cc([C@@H](N)C(C)CC)nn3)CC2)nc(N2CCN(C(=O)[C@H](Cc3cc4ccccc4[nH]3)n3cc([C@@H](N)C(C)CC)nn3)CC2)n1` (stereo partly specified): the IC50 is 0.82 µM. With `NCCCC[C@H](NC(=O)C1CCNCC1)c1nnc(CN)o1`, the IC50 is > 54 µM (inactive). As to `COc1ccccc1C1C(C#N)=C(N)Oc2c1c(-c1ccccc1)nn2-c1ccccc1` (stereo unspecified), the IC50 is > 54 µM (inactive).

As to `O=C(NCc1nnc(SCC(=O)N2CCOCC2)o1)c1c(F)cccc1Cl`, the IC50 is > 54 µM (inactive).

On to `O=C(COC(=O)c1ccc2ccccc2c1)NCCCc1ccccc1`, for which the IC50 is > 54 µM (inactive).

For the molecule `Cc1ccc(S(=O)(=O)/N=C(\CCl)N2CCOCC2)cc1`, the IC50 is > 54 µM (inactive). For the molecule `Cc1cccc(NC(=S)c2nc3ccccc3s2)c1`, the IC50 is > 54 µM (inactive). With `CC(=O)C1=C(C)NC(SCC(N)=O)=C(C#N)C1c1cccnc1` (stereo unspecified), the IC50 is > 54 µM (inactive). `COc1ccc(CCNC(=O)c2ccc(Cl)cc2Cl)cc1OC`: the IC50 is > 54 µM (inactive). For `Cc1cccc(C)c1NC(=O)C1c2ccccc2Oc2ccccc21`, the IC50 was > 54 µM (inactive).

The term IC50 denotes the midpoint of a concentration-inhibition curve.
